Test results: patent US12012408B2, “Purine compounds and method for the treatment of cancer” (THE ROYAL INSTITUTION FOR THE ADVANCEMENT OF …, priority 2018, dated 2024)

Experiments:
[1] = tested on: Akt/mTOR pathway in MDA-MB-231 and BT-20 cells; test: Western blot of the Akt/mTOR pathway; type: cell-based; conditions: FIG. 4A
Experimental: Sub-confluent cells were washed with PBS, lysed in RIPA buffer (50 mM Tris-HCl at pH7.5, 150 mM sodium chloride, 1% tritonX-100, 0.1% SDS, 2 mM EDTA and 25 mM sodium fluoride) supplemented with 1 mM PMSF and protease inhibitor cocktail (Roche) for 10 min on ice and centrifuged (13,000 rpm at 4° C. for 20 min) to separate cell lysate. Cell lysate (50 μg protein, as measured by the Bradford protein assay) was then added with SDS sample buffer (Tris at pH 6.8, 20% glycerol, 5% SDS, bromophenol blue and β-mercaptoethanol) and boiled for 5 min. Samples were then resolved through 13% SDS-PAGE gels, transferred to nitrocellulose membrane, blotted with specific first antibodies at different dilution in cold room overnight, and then amplified with horseradish peroxidase-conjugated secondary antibodies for 1 hour in room temperature and enhanced by chemiluminescence detection system.
The PI3K/Akt/mTOR pathway is a well-established pathway that is frequently activated in cancer cells and acts as a key negative regulator of autophagy (Schmelzle T et al. TOR, a central controller of cell growth Cell 2000; 103:253-62; Shi J et al. IL10 inhibits starvation-induced autophagy in hypertrophic scar fibroblasts via cross talk between the IL10-IL10R-STAT3 and IL10-AKT-mTOR pathways Cell Death Dis 2016; 7:e2133). […]

[2] = tested on: 4T1 cells (triple-negative breast carcinoma); test: In vivo orthotopic allograft model of breast cancer; design: species or system BALB/c mice
Experimental: All experiments were carried out according to protocol number 4101 of the McGill University Animal Care Committee. Mouse mammary carcinoma 4T1 cells (1×10^6 cells/each mouse) were transplanted into the mammary fat pad of BALB/c mice. […] Tumor size was measured using a caliper, and tumor volume was calculated as […] (length×width2). Mice were sacrificed 40 days after transplanting. Tumor tissues were isolated and fixed in 10% formalin. The lungs were fixed in 10% Bouin's fixative and lung metastatic nodules on the surface were counted using a stereomicroscope (Optimax; Leica).

[3] = tested on: MDA-MB-231 and BT-20 cells; test: Propidium iodide staining and flow cytometry of DNA content; type: cell-based; conditions: treatment for 24 hours; FIG. 6C
Experimental: Cells were seeded into six-well plates and treated with the indicated concentration of SLLN-15 for 24 hours. After harvesting, cells were fixed in 80% methanol at −20° C. overnight. The fixed cells were washed twice with cold phosphate-buffered saline (PBS), incubated for 1 hour with 0.1% Triton X-100 and 0.5 μg/ml RNase A, and then stained with propidium iodide (PI) (Sigma) at a final concentration of 10 μg/ml in the dark at 4° C. until analysis. The fluorescent signal was detected through the FL-2 channel using FACSCalibur flow cytometry (Becton Dickson), and the proportion of DNA in various phases was analyzed using FCS Express version 3.0 (De novo Software, Glendale, California, USA)

[4] = tested on: MDA-MB-231-M2 or 4T1 tumors; test: In vivo anti-metastatic activity in tumor-bearing mice
From the text: (§1) Breast cancer stem-like cells (BCSCs), heterogeneously subsisting as CD24low/CD44high and ALDHhigh subpopulations, are enriched in aggressive breast cancer subtypes and believed to be responsible for driving metastatic colonization. Despite evidence of a clinical association between BCSC and poor prognosis, effective therapeutic means to target this cell population is lacking. We identified SLLN-15 as a compound with selective anti-sternness activity across a panel of cell lines expressing ALDHhigh and CD24low/CD44high markers, including MDA-MB-231, SUM-149PT, BT-20, SKBR3, 4T1 and several anaplastic thyroid cell lines. […] In summary, our data foster that targeting regulatory networks driving sternness represent important therapeutic targets for treating metastatic breast disease.

In vivo tolerability = test: In vivo tolerability; design: species or system mice; conditions: administered intraperitoneally
From the text: as §1

[5] = tested on: MDA-MB-231 and BT-20 cells; test: BrdU labeling cell proliferation assay; type: cell-based; conditions: FIG. 6D
Experimental: The proliferation effects of SLLN-15 were assessed using the bromodeoxyuridine (BrdU) Cell proliferation Assay Kit (Biovision). Cells were seeded at a density of 5000 cells/well in a 96-well plate and treated with SLLN-15 or rapamycin (Cayman chemical) as indicated concentration or DMSO for 24 hours. The plates were read on FLUOstar OPTIMA microplate reader (BMG Labtech, Ortenberg, Germany) at 450 nm. Assays were performed in triplicate on three independent experiments.

[6] = tested on: MDA-MB-231 and BT-20 cells; test: Light microscopy of cell morphology; type: cell-based; conditions: compared to control cells; more detached and shrunken cells
From the text: FIG. S1 represents the cell morphological changes of MDA-MB-231 and BT-20 upon SLLN-15 treatment as visualized by light microscopy.
Within our quest to develop effective novel anti-cancer drug for TNBCs, we designed and synthesized a library of compounds derived from seleno-purine scaffolds. A high-throughput screening of major classes of kinases and enzymes involved in carcinogenesis identified a 4-selenomorpholinophenyl- and tetrahydroselenophene-substituted diamino-purines, namely SLLN-15 (FIG. 1A), as a potent small molecule capable of inhibiting TNBC cells. […] Subsequent cell-based assays confirmed this small molecule to inhibit the proliferation of two TNBC cell lines, BT-20 and MDA-MB-231.

[7] = tested on: MDA-MB-231 and BT-20 cells; test: MTT assay (short-term cell viability); type: cell-based
Experimental: The short-term effects of SLLN-15 on tumor cell growth were assessed using the 3-(4,5-dimethylthiazol-2-yl)-2,5-diphenylte-trazolium bromide (MTT; Sigma) assay. Cells were seeded at a density of 5000 cells/well in a 96-well plate and treated with SLLN-15 as indicated concentration or DMSO for 24 hours. MTT solution (5 mg/ml in RPMI 1640 medium) was added (20 μl/well), and plates were incubated for 4 hours in dark at 37° C., then the purple formazan crystals were then dissolved in 100 μl MTT solvent (4 mM HCl and 0.1% NP-40 in isopropanol). The plates were read on FLUOstar OPTIMA microplate reader (BMG Labtech, Ortenberg, Germany) at 570 nm. Assays were performed in triplicate on three independent experiments.

Compound: c1nc2nc(Nc3ccc(N4CC[Se]CC4)cc3)nc(N[C@H]3CC[Se]C3)c2[nH]1 [SLLN-15]
- phosphorylation levels of Akt, mTOR, p70S6K, S6 and 4EBP1 [1]: decreased phosphorylation levels
- tumor volumes ([2]; 30 mg/kg given PO, compared to vehicle, FIG. 1D): reduced
- tumor weights ([2]; 30 mg/kg given PO, compared to vehicle, FIG. 1E): reduced
- tumor allograft growth rate ([2]; 30 mg/kg given PO, compared to vehicle, FIGS. 1D and E): grew at a slower rate
- number of lung metastases ([2]; compared with vehicle-treated animals, FIG. 1F): significant inhibition of the number of lung metastases
- apoptosis (sub-G1 phase) [3]: no obvious apoptosis
- cells arrested in G2/M phase and polyploidy (>4N) [3]: significantly higher percentage
- anti-metastatic activity ([4]; mice bearing MDA-MB-231-M2 or 4T1 tumors, administered intraperitoneally): significant anti-metastatic activity
- MDA-MB-231-M2 progression to metastasis ([4]; pretreatment ex vivo prior to mouse implantation): significantly attenuated
- tolerability (In vivo tolerability): well-tolerated
- anti-proliferation potency compared to rapamycin [5]: more potent anti-proliferation agents
- BrdU-positive cells ([5]; dose-dependent): lower percentage of BrdU-positive cells
- cell morphology [6]: induced obvious morphological changes
- short-term and long-term cell viability (MTT and clonogenic assay) ([7]; SLLN-15 in presence of autophagy inhibitor 3-MA, FIGS. 5D and E): rescued both short-term and long-term cell viability
- cell viability (MTT) ([7]; time-dependent, SLLN-15 compared with vorinostat, FIG. 6A): markedly decreased cell viability
- overall cell viability (MTT) ([7]; treatment for 24 hours, dose-dependent, FIG. 1C): markedly decreased overall cell viability
